For series [1], the system named is MCF7. Briefly: Cytotoxicity against human MCF7 cells.
For series [2], the system named is HepG2. The series is described as follows: Cytotoxicity against human HepG2 cells.
Series [3] concerns MCF7. The series is described as follows: Antiproliferative activity against human MCF7 cells assessed as inhibition of cell growth after 48 hrs by MTT assay. The class given is functional, cell-based. The settings on record: MCF7, 48 h. Background: Formazan colour is commonly taken as a measure of viable cells.
The subject of series [4] is HepG2. Briefly: Antiproliferative activity against human HepG2 cells assessed as inhibition of cell growth after 48 hrs by MTT assay. The settings on record: HepG2, 48 h. The class given is functional, cell-based.
Series [5] deals with HepG2. Briefly: Induction of cell cycle arrest in human HepG2 cells assessed as accumulation at G0/G1 phase at IC50 after 48 hrs by propidium iodide staining based Flow cytometric analysis (reference value: 47.29%). It is filed as functional. (In flow cytometry, cells or beads pass a laser one at a time.)
The subject of series [6] is HepG2. The series is described as follows: Induction of cell cycle arrest in human HepG2 cells assessed as accumulation at S phase at IC50 after 48 hrs by propidium iodide staining based Flow cytometric analysis (reference value: 45.37%). The class given is functional.
The test system of series [7] is HepG2. The series is described as follows: Induction of cell cycle arrest in human HepG2 cells assessed as accumulation at G2/M phase at IC50 after 48 hrs by propidium iodide staining based Flow cytometric analysis (reference value: 7.34%). The class given is functional.
Series [8] concerns HepG2. Briefly: Induction of cell cycle arrest in human HepG2 cells assessed as accumulation at pre-G1 phase at IC50 after 48 hrs by propidium iodide staining based Flow cytometric analysis (reference value: 1.52%). It is filed as functional.
Series [9] deals with HepG2. Briefly: Induction of apoptosis in human HepG2 cells assessed as total apoptotic cells at IC50 after 48 hrs by Annexin V-FITC/propidium iodide staining based flow cytometric analysis (reference value: 1.52 %). The class given is functional.
Series [10] has as its system HepG2. Briefly: Induction of apoptosis in human HepG2 cells assessed as early apoptotic cells at IC50 after 48 hrs by Annexin V-FITC/propidium iodide staining based flow cytometric analysis (reference value: 0.38 %). The class given is functional.
For series [11], the system named is HepG2. Briefly: Induction of apoptosis in human HepG2 cells assessed as late apoptotic cells at IC50 after 48 hrs by Annexin V-FITC/propidium iodide staining based flow cytometric analysis (reference value: 0.18 %). It is filed as functional.
In series [12] the test system is HepG2. The series is described as follows: Induction of apoptosis in human HepG2 cells assessed as caspase-3 concentration at IC50 by ELISA (reference value: 0.03822 +/- 0.0029 ng/ml). It is filed as functional. In general terms: An ELISA detects its analyte on a solid surface through an enzyme-linked reagent.
Series [13] concerns HepG2. The series is described as follows: Induction of apoptosis in human HepG2 cells assessed as fold increase in caspase-3 activation at IC50 by ELISA. It is filed as functional.
Series [14] can be described thus: Cytotoxicity against human THLE2 cells assessed as reduction in cell viability by MTT assay. The class given is cell-based, THLE-2.
Series [15] is described as follows: Selectivity index, ratio of CC50 for human THLE2 cells to IC50 for human HepG2 cells. The class given is toxicity. As to conditions: THLE2 cells and HepG2 cells, read-out: Ratio CC50/IC50.
The next series addresses CDK2/Cyclin A2 (Homo sapiens, UniProt P24941). Briefly: Inhibition of CDK2/Cyclin A2 (unknown origin) after 10 mins by ADP-Glo reagent based assay. The class given is protein-complex assay.
Series [16] has as its target Cyclin-dependent kinase 1/cyclin B1 (Homo sapiens, UniProt P06493). Briefly: Inhibition of CDK1/cyclin B (unknown origin). It is filed as protein-complex assay.
Series [17] deals with Cyclin-dependent kinase 4/cyclin D1 (Homo sapiens, UniProt P11802). Briefly: Inhibition of CDK4/cyclin D1 (unknown origin). The class given is protein-complex assay.
For series [18], the target named is Cyclin-dependent kinase 7/ cyclin H (Homo sapiens, UniProt P50613). The series is described as follows: Inhibition of CDK7/cyclin H (unknown origin). It is filed as protein-complex assay.
The nature of series [19]: Cytotoxicity against human MCF10A cells assessed as reduction in cell viability by MTT assay. The class given is cell-based, MCF-10A.
A short description of series [20]: Selectivity index, ratio of CC50 for human MCF10A cells to IC50 for human MCF7 cells. As to conditions: MCF10A cells and MCF7 cells, read-out: Ratio CC50/IC50. The class given is toxicity.

pIC50, pKi: −log10 of the molar value.

Broadly, the pIC50 is −log10 of the IC50, conventionally taken in molar units. By CC50 is commonly meant the concentration giving 50% cytotoxicity. A word on the pKi: it is the negative decadic logarithm of the Ki, by convention in mol/L. The low end stands for a high Ki, the high end for a low Ki.

Cyclin-dependent kinase 1/cyclin B1, sequence (P06493 whole entry): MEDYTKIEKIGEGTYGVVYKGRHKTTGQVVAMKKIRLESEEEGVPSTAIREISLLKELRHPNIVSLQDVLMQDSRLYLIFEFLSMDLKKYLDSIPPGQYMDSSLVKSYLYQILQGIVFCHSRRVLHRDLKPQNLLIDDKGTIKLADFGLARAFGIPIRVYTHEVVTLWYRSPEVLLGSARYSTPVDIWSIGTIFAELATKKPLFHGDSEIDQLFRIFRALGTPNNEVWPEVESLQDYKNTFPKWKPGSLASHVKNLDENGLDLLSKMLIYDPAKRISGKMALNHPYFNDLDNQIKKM
Cyclin-dependent kinase 1/cyclin B1, sequence (P14635 whole entry, further chain): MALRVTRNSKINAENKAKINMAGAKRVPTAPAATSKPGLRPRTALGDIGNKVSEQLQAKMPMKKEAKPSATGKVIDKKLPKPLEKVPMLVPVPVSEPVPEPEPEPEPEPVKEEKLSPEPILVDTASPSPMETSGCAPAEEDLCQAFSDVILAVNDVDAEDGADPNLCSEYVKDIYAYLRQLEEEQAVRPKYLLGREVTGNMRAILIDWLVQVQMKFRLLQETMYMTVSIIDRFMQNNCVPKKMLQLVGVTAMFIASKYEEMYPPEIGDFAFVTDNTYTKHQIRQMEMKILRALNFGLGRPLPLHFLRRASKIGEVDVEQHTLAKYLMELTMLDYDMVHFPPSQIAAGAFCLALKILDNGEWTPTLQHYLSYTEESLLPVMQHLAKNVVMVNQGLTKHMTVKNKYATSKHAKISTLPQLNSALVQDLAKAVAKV
Cyclin-dependent kinase 4/cyclin D1, sequence (P11802 whole entry): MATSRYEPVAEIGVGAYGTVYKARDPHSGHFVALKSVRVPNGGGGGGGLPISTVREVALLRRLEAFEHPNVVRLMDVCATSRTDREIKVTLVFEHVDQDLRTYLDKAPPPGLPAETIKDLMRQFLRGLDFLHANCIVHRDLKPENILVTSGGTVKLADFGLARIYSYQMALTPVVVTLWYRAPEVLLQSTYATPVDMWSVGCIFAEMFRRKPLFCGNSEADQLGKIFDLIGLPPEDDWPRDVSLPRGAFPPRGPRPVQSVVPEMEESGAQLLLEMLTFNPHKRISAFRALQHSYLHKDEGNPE
Cyclin-dependent kinase 4/cyclin D1, sequence (P24385 whole entry, further chain): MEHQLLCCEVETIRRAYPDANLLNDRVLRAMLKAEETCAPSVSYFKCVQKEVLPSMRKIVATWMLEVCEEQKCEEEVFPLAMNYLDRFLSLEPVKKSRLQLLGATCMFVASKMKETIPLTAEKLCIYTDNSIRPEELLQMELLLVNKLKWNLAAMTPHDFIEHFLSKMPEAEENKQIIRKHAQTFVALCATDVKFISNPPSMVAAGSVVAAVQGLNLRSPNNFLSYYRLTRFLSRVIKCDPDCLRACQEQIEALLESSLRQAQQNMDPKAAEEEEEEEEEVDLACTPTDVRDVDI
Cyclin-dependent kinase 7/ cyclin H, sequence (P51946 whole entry): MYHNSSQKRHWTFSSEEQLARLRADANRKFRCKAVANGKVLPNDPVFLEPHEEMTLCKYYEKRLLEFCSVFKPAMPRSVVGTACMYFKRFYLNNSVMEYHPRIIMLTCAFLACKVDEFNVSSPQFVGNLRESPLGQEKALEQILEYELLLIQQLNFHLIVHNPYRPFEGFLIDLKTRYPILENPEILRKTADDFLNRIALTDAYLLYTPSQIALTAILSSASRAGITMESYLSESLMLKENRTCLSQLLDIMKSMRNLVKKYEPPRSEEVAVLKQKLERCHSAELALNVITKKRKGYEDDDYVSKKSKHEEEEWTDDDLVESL
Cyclin-dependent kinase 7/ cyclin H, sequence (P50613 whole entry): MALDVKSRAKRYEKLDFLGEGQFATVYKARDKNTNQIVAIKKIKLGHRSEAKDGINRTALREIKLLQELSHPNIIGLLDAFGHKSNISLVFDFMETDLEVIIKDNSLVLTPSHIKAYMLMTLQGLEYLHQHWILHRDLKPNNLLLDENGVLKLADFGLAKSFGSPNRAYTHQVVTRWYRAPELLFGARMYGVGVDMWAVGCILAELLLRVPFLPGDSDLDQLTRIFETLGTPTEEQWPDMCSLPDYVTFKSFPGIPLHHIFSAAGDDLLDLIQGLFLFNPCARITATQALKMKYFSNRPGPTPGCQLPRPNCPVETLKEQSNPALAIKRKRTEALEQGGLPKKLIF

`CC(C)c1cnn2c(NCc3ccccc3)cc(N[C@@H](CO)[C@H](O)CO)nc12`: the negative logarithm of the IC50 (pIC50) was 6.52 in the series with MCF7 [1] and 6.00 in the series on HepG2 [2].

For `COc1ccc(-c2nc3c(c(-c4ccccc4)nn3-c3ccccc3)c(-c3ccc(N4CCN(C)CC4)cc3)c2C#N)cc1`, the pIC50 was 5.58 in the series with MCF7 [3]; 5.88 with HepG2 [4]; 7.18 on CDK2/Cyclin A2; 6.68 in series [16]; 3.98 in series [17]; 6.65 in series [18]. For the same compound, the Activity with HepG2 [5] is given as 48.02%; in the series on HepG2 [6], 48.36%; in the series with HepG2 [7], 3.62%; in the series on HepG2 [8], 22.15%; in the series with HepG2 [9], 22.2%; with HepG2 [10], 6.07%. The Activity with HepG2 [11] came out at 11.17%; with HepG2 [12], 0.3714 ng/mL. Besides, in the series on HepG2 [13], the “fold change (FC)” value is on record as 10. Moreover, the CC50 in series [14] is 37.5 µM. Also, the selectivity ratio in series [15] was 28.2. In addition, the pKi on CDK2/Cyclin A2 is 7.40; in series [16], 6.90; in series [17] it was 4.24; in [18], 6.84.

For the compound `Fc1ccc(-c2ccnc3c2c(-c2ccccc2)nn3-c2ccccc2)cc1`, the pIC50 with MCF7 [3] was 5.80; in the series on HepG2 [4], 5.80; against CDK2/Cyclin A2, 7.38; in [16], 5.87; in series [17], 5.16; in [18] it was 5.70. Moreover, the Activity in the series with HepG2 [5] worked out at 38.47%; with HepG2 [6], 23.89%; in the series on HepG2 [7] it was 37.64%; in the series on HepG2 [8], 32.19%; in the series on HepG2 [9], 32.19%; in the series with HepG2 [10], 6.15%. For the same compound, the Activity was found to be 17.43% with HepG2 [11] and 0.3872 ng/mL in the series on HepG2 [12]. Further, the “fold change (FC)” value in the series with HepG2 [13] is 10. In addition, the results for the CC50 in series [19] and in [14] were 28.3 µM and 19.7 µM, respectively. The results for the selectivity ratio in series [20] and in series [15] were 18 and 12.5, respectively. Moreover, the negative-log Ki (pKi) is 7.60 on CDK2/Cyclin A2, 6.08 in series [16], 5.42 in series [17] and 5.90 in [18].

The record behind these values is ChEMBL document CHEMBL4811242, “Mechanistic selectivity investigation and 2D-QSAR study of some new antiproliferative pyrazoles and pyrazolopyridines as potential CDK2 inhibitors” (Eur J Med Chem, 2021).
